Assay results as given in PMC11569205, “An allosteric inhibitor of RhoGAP class-IX myosins suppresses the metastatic features of cancer cells” (Nature Communications, 2024).
Read-outs that look alike come from different tables or passages of the source.

Experiments:
Dd myosin-2 (DdMyo2) [1] = target: T1, Dd myosin-2 (DdMyo2) (Dictyostelium discoideum, UniProt P08799); assay: biochemical; set-up: binding affinity of compound to purified myosin (technique not given in the excerpts)
T1 construct: gene mhcA; motor domain
T1 sequence (P08799 2-762): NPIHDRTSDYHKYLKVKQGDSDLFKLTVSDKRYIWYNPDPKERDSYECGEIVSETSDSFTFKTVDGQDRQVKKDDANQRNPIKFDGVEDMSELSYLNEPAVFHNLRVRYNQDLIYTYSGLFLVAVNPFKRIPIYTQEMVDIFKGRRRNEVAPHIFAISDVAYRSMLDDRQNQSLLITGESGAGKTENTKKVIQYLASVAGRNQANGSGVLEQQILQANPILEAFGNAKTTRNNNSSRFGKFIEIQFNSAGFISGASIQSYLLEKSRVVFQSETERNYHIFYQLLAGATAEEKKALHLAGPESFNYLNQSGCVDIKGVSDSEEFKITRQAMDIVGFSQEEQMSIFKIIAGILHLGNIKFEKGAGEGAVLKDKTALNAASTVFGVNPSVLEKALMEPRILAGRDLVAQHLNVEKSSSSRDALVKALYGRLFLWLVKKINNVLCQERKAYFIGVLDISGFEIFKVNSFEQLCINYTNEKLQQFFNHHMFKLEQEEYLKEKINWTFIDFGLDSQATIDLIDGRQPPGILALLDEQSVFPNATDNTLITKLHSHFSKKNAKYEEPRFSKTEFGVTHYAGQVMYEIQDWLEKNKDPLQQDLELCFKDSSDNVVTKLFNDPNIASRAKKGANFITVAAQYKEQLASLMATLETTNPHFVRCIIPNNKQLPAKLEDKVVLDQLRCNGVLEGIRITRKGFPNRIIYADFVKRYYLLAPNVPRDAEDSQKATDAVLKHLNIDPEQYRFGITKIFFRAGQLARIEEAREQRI
From the text: (§1) Structural elements responsible for communicating conformational changes along the myosin ATPase cycle, such as the relay helix, the strut loop, and the W-helix, which form a central hub in the myosin motor domain for effective force production, flank the inhibitor binding site (Fig. 1K). The site buries a total protein surface area of 302.9 Å^2. This pocket is not visible in ligand-free DdMyo2 pre-power stroke structures and only formed by rearrangements of the side chains of residues S266 (β7-loop), E467 (relay helix), and K587 (strut) upon binding of the carbazole (Supplementary Fig. 1A). The aromatic carbazole moiety interacts primarily through hydrophobic contacts with F466 (relay helix) and V630 (W-helix), as well as cation-π interactions with K423 (O-helix) (Supplementary Fig. 1B). Four hydrogen bonds stabilize the inhibitor in its binding position: S465 (relay helix) and K587 (strut loop) interact with the hydroxy group of the ligand, and S465 (relay helix) and the main chain of E487 (relay helix) bind to the nitrogen of the carbazole framework. […] Rabbit fast skeletal muscle heavy meromyosin (skHMM) was prepared as described in ref. [129]. All other myosins were purified from native tissue or recombinant from the following organismal sources: D. discoideum (Dd), O. coniculus (Oc), S. scrofa (Ss), R. norvegicus (Rn), C. elegans (Ce), H. sapiens (Hs). Motor domain constructs of myosin-2, myosin-5a–5b, Ce myosin-9/Rn myosin-9b, were prepared as described previously in refs. [126],[130]–[135]. Hs nonmuscle myosin-2A (NM2a) was purified from SF9 cells using the baculovirus expression system as described in ref. [130] (for more information see Supplementary Table 5). F-actin was prepared according to the protocol by Lehrer and Kerwar[136].

DdMyo5b = target: T2, DdMyo5b (Dictyostelium discoideum, UniProt P54697); assay: biochemical; set-up: binding affinity of compound to purified myosin (technique not given in the excerpts)
T2 construct: gene myoJ; motor domain
T2 sequence (P54697 whole entry, the tested form may be a part): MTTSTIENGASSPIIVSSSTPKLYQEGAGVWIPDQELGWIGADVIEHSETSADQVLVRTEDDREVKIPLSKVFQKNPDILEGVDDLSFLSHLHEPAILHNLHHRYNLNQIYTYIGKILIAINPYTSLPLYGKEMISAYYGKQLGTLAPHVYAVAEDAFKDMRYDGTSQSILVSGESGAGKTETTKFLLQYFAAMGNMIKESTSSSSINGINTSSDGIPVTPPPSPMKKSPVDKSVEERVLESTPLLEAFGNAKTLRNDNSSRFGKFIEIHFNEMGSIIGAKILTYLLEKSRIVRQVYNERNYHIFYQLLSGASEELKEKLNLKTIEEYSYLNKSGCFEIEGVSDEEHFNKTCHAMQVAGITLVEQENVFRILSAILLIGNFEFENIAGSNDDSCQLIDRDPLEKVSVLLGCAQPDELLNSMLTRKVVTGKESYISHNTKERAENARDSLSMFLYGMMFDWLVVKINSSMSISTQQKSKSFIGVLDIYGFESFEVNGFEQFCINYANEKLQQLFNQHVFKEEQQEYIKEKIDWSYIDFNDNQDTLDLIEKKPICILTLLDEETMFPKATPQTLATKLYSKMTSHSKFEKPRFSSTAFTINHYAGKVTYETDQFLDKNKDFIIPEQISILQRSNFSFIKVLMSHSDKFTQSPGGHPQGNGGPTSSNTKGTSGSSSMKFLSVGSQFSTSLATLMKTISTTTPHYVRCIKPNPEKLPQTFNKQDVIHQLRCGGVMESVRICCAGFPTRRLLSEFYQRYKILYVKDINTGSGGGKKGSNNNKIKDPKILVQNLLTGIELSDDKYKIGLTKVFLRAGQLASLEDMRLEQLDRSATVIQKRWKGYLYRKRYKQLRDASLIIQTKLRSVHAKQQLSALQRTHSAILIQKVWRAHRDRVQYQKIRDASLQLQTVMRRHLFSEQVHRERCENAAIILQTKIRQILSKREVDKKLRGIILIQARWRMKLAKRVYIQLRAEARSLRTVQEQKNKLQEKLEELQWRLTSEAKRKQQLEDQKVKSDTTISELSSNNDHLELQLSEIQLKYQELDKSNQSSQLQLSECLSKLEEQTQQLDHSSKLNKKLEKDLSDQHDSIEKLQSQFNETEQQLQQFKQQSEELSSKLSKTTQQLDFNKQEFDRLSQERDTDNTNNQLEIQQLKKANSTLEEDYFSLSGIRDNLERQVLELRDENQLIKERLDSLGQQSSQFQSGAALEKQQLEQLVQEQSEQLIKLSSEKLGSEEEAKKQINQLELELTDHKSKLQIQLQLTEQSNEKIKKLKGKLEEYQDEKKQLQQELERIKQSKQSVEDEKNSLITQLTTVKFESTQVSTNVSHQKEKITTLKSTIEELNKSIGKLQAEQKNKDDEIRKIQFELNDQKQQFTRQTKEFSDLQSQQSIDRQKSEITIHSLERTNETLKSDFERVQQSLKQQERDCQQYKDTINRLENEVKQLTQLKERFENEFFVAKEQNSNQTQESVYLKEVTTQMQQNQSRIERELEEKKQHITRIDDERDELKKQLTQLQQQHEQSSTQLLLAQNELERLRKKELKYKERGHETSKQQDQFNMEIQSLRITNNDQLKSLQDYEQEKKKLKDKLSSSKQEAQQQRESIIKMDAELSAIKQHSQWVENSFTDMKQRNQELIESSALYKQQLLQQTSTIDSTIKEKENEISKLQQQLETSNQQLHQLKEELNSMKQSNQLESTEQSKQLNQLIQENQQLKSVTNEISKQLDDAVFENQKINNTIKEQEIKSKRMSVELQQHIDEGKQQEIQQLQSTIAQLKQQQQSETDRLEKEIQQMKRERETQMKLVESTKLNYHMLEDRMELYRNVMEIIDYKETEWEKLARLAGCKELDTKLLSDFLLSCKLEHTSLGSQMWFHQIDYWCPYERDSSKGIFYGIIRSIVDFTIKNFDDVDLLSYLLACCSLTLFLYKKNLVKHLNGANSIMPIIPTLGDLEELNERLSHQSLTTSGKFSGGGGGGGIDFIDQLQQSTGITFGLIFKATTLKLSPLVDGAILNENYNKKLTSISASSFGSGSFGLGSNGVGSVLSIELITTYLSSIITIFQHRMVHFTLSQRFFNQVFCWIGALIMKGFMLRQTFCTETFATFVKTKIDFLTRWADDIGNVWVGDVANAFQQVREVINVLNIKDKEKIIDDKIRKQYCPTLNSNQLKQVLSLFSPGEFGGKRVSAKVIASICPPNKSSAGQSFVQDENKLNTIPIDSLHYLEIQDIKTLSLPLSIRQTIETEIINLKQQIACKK
From the text: as §1

Dd myosin-2 (DdMyo2) [2] = target: T1, Dd myosin-2 (DdMyo2); assay: biochemical; set-up: inhibition of myosin ATPase activity
From the text: (§2) We set out to identify a myosin class-IX specific inhibitor by screening an in-house compound library comprising halogenated pseudilins and carbazole derivatives, developed to target the ATPase activity of myosins[47],[48]. […] Low micromolar concentrations inhibited Myo9 motor function substantially, reducing sliding velocity and motile fraction of actin filaments in a reproducible and reversible manner (Fig. 1G, H). Importantly, the motor properties of other tested myosins remained unaffected (Fig. 1G). Rabbit fast skeletal muscle heavy meromyosin (skHMM) was prepared as described in ref. [129]. All other myosins were purified from native tissue or recombinant from the following organismal sources: D. discoideum (Dd), O. coniculus (Oc), S. scrofa (Ss), R. norvegicus (Rn), C. elegans (Ce), H. sapiens (Hs). Motor domain constructs of myosin-2, myosin-5a–5b, Ce myosin-9/Rn myosin-9b, were prepared as described previously in refs. [126],[130]–[135]. Hs nonmuscle myosin-2A (NM2a) was purified from SF9 cells using the baculovirus expression system as described in ref. [130] (for more information see Supplementary Table 5). F-actin was prepared according to the protocol by Lehrer and Kerwar[136].

Rn myosin-9b (Myo9b) [3] = target: T3, Rn myosin-9b (Myo9b) (Rattus norvegicus, UniProt Q63358); assay: biochemical; set-up: inhibition of myosin ATPase activity
T3 construct: motor domain construct
T3 sequence (Q63358 2-954): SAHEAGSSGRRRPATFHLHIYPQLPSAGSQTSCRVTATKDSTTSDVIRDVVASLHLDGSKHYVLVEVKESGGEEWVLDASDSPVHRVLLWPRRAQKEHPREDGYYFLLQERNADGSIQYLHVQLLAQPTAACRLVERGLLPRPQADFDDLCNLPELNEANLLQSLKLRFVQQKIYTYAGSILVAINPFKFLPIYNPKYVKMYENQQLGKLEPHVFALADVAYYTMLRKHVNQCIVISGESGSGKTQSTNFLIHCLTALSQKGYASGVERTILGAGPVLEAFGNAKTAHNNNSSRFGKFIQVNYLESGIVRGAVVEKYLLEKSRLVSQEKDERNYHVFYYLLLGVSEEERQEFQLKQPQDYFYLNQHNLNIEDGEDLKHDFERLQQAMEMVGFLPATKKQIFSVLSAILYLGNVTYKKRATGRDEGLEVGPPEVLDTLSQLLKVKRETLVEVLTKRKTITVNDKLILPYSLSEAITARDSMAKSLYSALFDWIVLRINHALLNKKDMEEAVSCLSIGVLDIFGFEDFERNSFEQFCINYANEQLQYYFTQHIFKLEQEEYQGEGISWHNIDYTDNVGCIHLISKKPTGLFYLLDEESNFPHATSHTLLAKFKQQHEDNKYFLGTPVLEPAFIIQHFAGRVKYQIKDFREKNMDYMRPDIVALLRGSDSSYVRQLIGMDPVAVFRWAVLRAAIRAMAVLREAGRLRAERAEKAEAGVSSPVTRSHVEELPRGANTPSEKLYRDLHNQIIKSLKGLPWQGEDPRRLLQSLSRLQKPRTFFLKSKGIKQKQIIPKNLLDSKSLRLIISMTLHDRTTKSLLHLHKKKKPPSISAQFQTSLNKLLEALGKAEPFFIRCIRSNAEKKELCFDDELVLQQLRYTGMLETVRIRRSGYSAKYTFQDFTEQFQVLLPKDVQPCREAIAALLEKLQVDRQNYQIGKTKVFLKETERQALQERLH
From the text: as §2

Rn myosin-9b (Myo9b) [4] = target: T3, Rn myosin-9b (Myo9b); assay: NADH-coupled basal and actin-activated ATPase assay; assay type: biochemical
Ce myosin-9 = target: T4, Ce myosin-9 (Caenorhabditis elegans, UniProt F0IWT2); assay: NADH-coupled basal and actin-activated ATPase assay; in vitro actin motility; assay type: biochemical
T4 construct: gene hum-7; motor domain construct
T4 sequence (F0IWT2 entry or part of it): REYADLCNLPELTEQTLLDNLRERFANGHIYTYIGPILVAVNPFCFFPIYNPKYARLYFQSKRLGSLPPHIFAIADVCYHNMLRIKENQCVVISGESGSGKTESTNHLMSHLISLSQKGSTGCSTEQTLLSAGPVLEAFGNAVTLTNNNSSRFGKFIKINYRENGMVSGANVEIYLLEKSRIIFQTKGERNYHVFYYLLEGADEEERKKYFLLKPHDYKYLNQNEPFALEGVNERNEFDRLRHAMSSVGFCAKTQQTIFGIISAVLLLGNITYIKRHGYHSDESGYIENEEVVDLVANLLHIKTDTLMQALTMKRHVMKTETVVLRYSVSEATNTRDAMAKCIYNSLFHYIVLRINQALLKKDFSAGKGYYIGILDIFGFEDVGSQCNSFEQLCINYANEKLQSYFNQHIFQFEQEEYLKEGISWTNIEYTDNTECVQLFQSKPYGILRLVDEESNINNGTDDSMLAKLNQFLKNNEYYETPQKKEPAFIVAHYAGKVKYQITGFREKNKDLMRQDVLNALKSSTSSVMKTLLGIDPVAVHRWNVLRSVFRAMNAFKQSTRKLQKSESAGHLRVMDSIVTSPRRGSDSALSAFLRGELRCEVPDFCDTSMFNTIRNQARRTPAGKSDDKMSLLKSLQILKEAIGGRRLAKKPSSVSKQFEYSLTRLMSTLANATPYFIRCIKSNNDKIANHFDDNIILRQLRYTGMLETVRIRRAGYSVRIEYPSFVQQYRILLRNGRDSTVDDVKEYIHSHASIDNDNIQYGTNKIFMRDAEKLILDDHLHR
From the text: NADH-coupled basal and actin-activated ATPase assay; in vitro actin motility on Ce myosin-9 | Inhibitory effect of adhibin on Cemyosin-9 and Rnmyosin-9b basal and actin-activated ATPase activities.

SMILES | Kd (Dd myosin-2 (DdMyo2) [1]) [µM] | Kd (DdMyo5b) [µM] | IC50 (Dd myosin-2 (DdMyo2) [2]) [µM] | IC50 (Rn myosin-9b (Myo9b) [3]) [nM] | Kd (Dd myosin-2 (DdMyo2) [1]; read-out: KD) [µM] | Kd (DdMyo5b; read-out: KD) [µM] | IC50 (Dd myosin-2 (DdMyo2) [2]; read-out: IC50) [µM] | IC50 (Rn myosin-9b (Myo9b) [4]) [nM] | IC50 (Ce myosin-9) [nM]
Cc1ccc2[nH]c3c(O)cc(Br)c(Br)c3c2c1 [compound 5, 3,4-dibromo-6-methyl-9H-carbazol-1-ol] | 7.3 ± 4.1 | 33.2 ± 5.2 | 22.6 ± 7.5 | 2000 ± 300 | – | – | – | – | –
OCc1cc(Br)cc2c1[nH]c1ccc(Br)cc12 [compound 12, 3,6-dibromo-1-(hydroxymethyl)carbazole] | – | – | – | – | 14.9 ± 3.2 | 1.5 ± 0.5 | 37.7 ± 9.4 | 2500 ± 200 | 2600 ± 200
